Here are results for 4 compounds from patent publication US5362497A, “Transdermal therapeutic composition” (priority 1989, dated 1994).

Format in all cases: in vivo, SD rats
Data set [1] is described as follows: Molsidomine concentration in plasma after transdermal application (HPLC). As for the experimental part:
The above transdermal therapeutic composition was put on a clipped abdomen of male SD rats (7-week-old, 240 to 270 g, 5 heads) and fixed with a surgical tape. After 1, 2, 4, 6 and 24 hours, the blood was collected from the tail vein, and the concentration of molsidomine in the plasma was determined by HPLC.
On the other hand, 0.5 g of molsidomine was dissolved in 3 g of propylene glycol, and 0.35 g of the solution was absorbed into a rayon web of nonwoven fabric and applied to SD rats in the same manner as mentioned above.

Data set [2] in a line: Vinpocetine concentration in plasma after transdermal application (HPLC). On the procedure:
The above transdermal therapeutic composition was put on a clipped abdomen of male SD rats (7-week-old, 240 to 270 g, 4 heads) and fixed with a surgical tape. Just before the administration and after 0.5, 1, 2, 4, 6 and 24 hours, the blood was collected from the tail vein. After the blood was treated with heparin, the plasma was separated. The concentration of vinpocetine in the plasma was determined by HPLC after the plasma was cleaned up by Sep-Pak C18 (Waters).
On the other hand, 0.35 g of 4% aqueous suspension of vinpocetine was absorbed into a web of nonwoven fabric and applied to SD rats in the same manner as mentioned above.

The nature of data set [3]: TRH concentration in plasma after transdermal application (radioimmunoassay). As to conditions: for concentration at 0.5 h: 0.5 h after administration; for concentration at 1 h: 1 h after administration; for concentration at 2 h: 2 h after administration; for concentration at 4 h: 4 h after administration; for concentration at 6 h: 6 h after administration. As for the experimental part:
The above transdermal therapeutic composition was put on a clipped abdomen of male SD rats (7-week-old, 240 to 270 g, 4 heads) and fixed with a surgical tape. After 0.5, 1, 2, 4, 6 and 24 hours, the blood was collected from the tail vein. After the blood was treated with heparin, 50 μl of a reagent (aqueous solution containing 0.01 g/l of 8-hydroxyquinoline sulfate, 0.15 g/l of EDTA-2Na and 0.05 g/l of Tween 20) was added to 0.5 ml of the blood to separate the plasma. The TRH concentration in the plasma was determined by the below-mentioned radioimmunoassay. To 100 μl of the separated plasma were added 100 μl of 0.7% bovine serum albumin, 100 μl of anti-TRH antibody (500-fold dilution) and 100 μl of ^125 I-labeled TRH (about 10000 dpm), and the resulting mixture was incubated at 4° C. for 3 days. The secondary antibody (100 μl of anti-γ-globulin serum and 100 μl of normal rabbit serum) was then added, and the mixture was incubated at 4° C. for 1 day. The supernatant was removed by centrifugation at 3000 rpm, and the radioactivity of the precipitate was determined by a γ counter.
On the other hand, 10% polyvinyl alcohol gel (pH 4, buffered with 0.01M citric acid-0.01M disodium phosphate) containing 2% TRH was formulated to make the diameter and thickness 3.2 cm and 0.1 cm respectively (sticking area: 8 cm^2; TRH content: 16 mg), and applied to SD rats (4 heads) in the same manner as mentioned above. The TRH concentration in the plasma was determined by the radioimmunoassay in the same manner as mentioned above.

The subject of data set [4] is hypertensive reaction induced by angiotensin I. As to the kind of experiment: Transdermal absorption test: inhibition of hypertensive reaction induced by angiotensin I in rats.
Experimental: Using 9-week-old male SD rats, the transdermal therapeutic tape (6 mg as compound (I)/rat) was applied to a clipped area (6 cm^2) of the abdominal skin and the area of exposure was covered by the occluded dressing method. The transdermal absorption effect was evaluated daily by monitoring the inhibition rate (%) against hypertensive reaction induced by angiotensin I. Angiotensin I was administered in an intravenous dose of 300 ng/kg (rats).
Using 9-week-old male SD rats, the transdermal therapeutic tape (9 mg as compound (I)/rat) was applied to a clipped area (6 cm^2) of the abdominal skin and the area of exposure was covered by the occluded dressing method.
Where [5] appears, read: rat, plasma, topical or ocular, Example 6 composition.
[6] abbreviates: rat, plasma, topical or ocular, comparison: 10% polyvinyl alcohol gel pH 4, 2% TRH (16 mg), 8 cm^2.
Setting [7] is: Example 1 tape, 6 mg as compound (I)/rat.
Setting [8] is: Example 2 tape, procedure of Example 1.
[9] abbreviates: Example 3 tape, procedure of Example 1.
Where [10] appears, read: Example 4 tape, 9 mg as compound (I)/rat.

A value given as a limit tells only on which side of the number the result lay.

`CCOC(=O)[N-]c1cn(N2CCOCC2)n[o+]1` [molsidomine, N-ethoxycarbonyl-3-morpholinosydnonimine]: in data set [1] (Example 5 composition), the “concentration of molsidomine in the blood (in words)” value is on record as “a high concentration of molsidomine in the blood was observed”. For the same compound, in data set [1] (comparison: solution of 0.5 g molsidomine in 3 g propylene glycol, 0.35 g on nonwoven fabric), the “concentration of molsidomine in the plasma” value is “below the detection limit”. Moreover, the concentration at 1 h in data set [1] (rat, plasma, topical or ocular, Example 5 composition, 1 h after administration) worked out at 123 ng/mL. In addition, the concentration at 2 h in data set [1] (rat, plasma, topical or ocular, Example 5 composition, 2 h after administration) turned out to be 235 ng/mL. Besides, the concentration at 4 h in data set [1] (rat, plasma, topical or ocular, Example 5 composition, 4 h after administration) is 451 ng/mL. Also, in data set [1] (rat, plasma, topical or ocular, Example 5 composition, 6 h after administration), the concentration at 6 h was found to be 322 ng/mL. Further, the concentration at 24 h in data set [1] (rat, plasma, topical or ocular, Example 5 composition, 24 h after administration) was found to be 169 ng/mL.

Regarding `CCOC(=O)C1=C[C@]2(CC)CCCN3CCc4c(n1c1ccccc41)[C@@H]32` [vinpocetine, apovincamic acid ethyl ester], the “concentration of vinpocetine in the plasma (in words)” value in data set [2] (Example 7 composition) was “rapidly increased, and the required concentration was maintained during a period of 24 hours”. Further, in data set [2] (Example 7 composition, just before administration), the “Average concentration in plasma” value was 0 ng/mL. Also, in data set [2] (comparison: 0.35 g of 4% aqueous suspension of vinpocetine on nonwoven fabric), the “concentration of vinpocetine in the plasma” value was “below the detection limit”. The compound further had a concentration at 0.5 h in data set [2] (rat, plasma, topical or ocular, Example 7 composition, 0.5 h after administration) of 149 ng/mL. This compound also showed a concentration at 1 h in data set [2] (rat, plasma, topical or ocular, Example 7 composition, 1 h after administration) of 155 ng/mL. The compound also returned a concentration at 2 h in data set [2] (rat, plasma, topical or ocular, Example 7 composition, 2 h after administration) of 80.1 ng/mL. Further, the concentration at 4 h in data set [2] (rat, plasma, topical or ocular, Example 7 composition, 4 h after administration) came out at 60.7 ng/mL. This compound also registered a concentration at 6 h in data set [2] (rat, plasma, topical or ocular, Example 7 composition, 6 h after administration) of 74.1 ng/mL. Further, the concentration at 24 h in data set [2] (rat, plasma, topical or ocular, Example 7 composition, 24 h after administration) turned out to be 64.3 ng/mL.

Regarding `NC(=O)[C@@H]1CCCN1C(=O)[C@H](Cc1cnc[nH]1)NC(=O)[C@@H]1CCC(=O)N1` [TRH, L-pyroglutamyl-L-histidyl-L-prolinamide], the “TRH concentration in the plasma (in words)” value in data set [3] (Example 6 composition) is “rapidly increased”. Besides, in data set [3] (comparison: 10% polyvinyl alcohol gel pH 4, 2% TRH (16 mg), 8 cm^2), the “TRH concentration in the plasma (in words)” value was “very low”. In data set [3] (setting [5]), this compound registered a concentration at 0.5 h of 59 ng/mL, a concentration at 1 h of 88.9 ng/mL, a concentration at 2 h of 110 ng/mL and a concentration at 4 h of 391 ng/mL. The compound further had a concentration at 6 h in data set [3] (setting [5]) of 326 ng/mL. Further, the concentration at 24 h in data set [3] (rat, plasma, topical or ocular, Example 6 composition, 24 h after administration) is 82.4 ng/mL. In addition, in data set [3] (rat, plasma, topical or ocular, Example 6 composition, read-out: maximum concentration in the plasma), the Cmax is approximately 400 ng/mL. Besides, the Tmax in data set [3] (rat, plasma, topical or ocular, Example 6 composition, read-out: time of maximum concentration in the plasma) was found to be 4 h. Also, in data set [3] (setting [6]), the concentration at 0.5 h was 8.3 ng/mL, the concentration at 1 h was found to be 8 ng/mL, the concentration at 2 h was 4.5 ng/mL and the concentration at 4 h was 3 ng/mL. This compound gave a concentration at 6 h in data set [3] (setting [6]) of 1.8 ng/mL.

Turning to `O=C(O)CN1C(=O)[C@@H](N[C@@H](CCCCC2CCNCC2)C(=O)O)CSc2ccccc21` [Compound (I), (R)-3-[(S)-1-carboxy-5-(4-piperidyl)pentyl]amino-4-oxo-2,3,4,5-tetrahydro-1,5-benzothiazepine-5-acetic acid], in data set [4] (setting [7]), the “duration of effect (inhibition of hypertensive reactivity induced by angiotensin I)” value is more than 24 h and the transdermal absorption result is recorded as “sufficiently absorbed transdermally”. In data set [4] (Example 1 tape, 6 mg as compound (I)/rat, abdominal skin 6 cm^2, angiotensin I 300 ng/kg i.v.), the “initiation time of 80% inhibition against hypertensive reactivity induced by angiotensin I” value is “five”. For the same compound, the “inhibition against hypertensive reactivity induced by angiotensin I” value in data set [4] (Example 1 tape, 6 mg as compound (I)/rat, five hours after administration) amounted to 80%. In addition, in data set [4] (setting [8]), the “duration of effect (inhibition of hypertensive reaction by angiotensin I)” value is more than 24 h, the “initiation time of 80% inhibition against hypertensive reaction by angiotensin I” value is listed as “three” and the transdermal absorption entry was “sufficiently absorbed transdermally”. Also, in data set [4] (Example 2 tape, three hours after administration), the “inhibition against hypertensive reaction by angiotensin I” value amounted to 80%. In data set [4] (Example 3 tape, five hours after administration), the “inhibition against hypertensive reaction by angiotensin I” value is on record as 80%. For the same compound, in data set [4] (setting [9]), the “duration of effect (inhibition of hypertensive reaction by angiotensin I)” value was more than 24 h, the “initiation time of 80% inhibition against hypertensive reaction by angiotensin I” value is listed as “five” and the transdermal absorption result was “sufficiently absorbed transdermally”. In addition, in data set [4] (setting [10]), the “duration of effect (inhibition of hypertensive reactivity by angiotensin I)” value is more than 24 h and the transdermal absorption entry is given as “sufficiently absorbed transdermally”. In addition, the “initiation time of 80% inhibition against hypertensive reactivity by angiotensin I” value in data set [4] (Example 4 tape, 9 mg as compound (I)/rat, abdominal skin 6 cm^2) was “five”. The “inhibition against hypertensive reactivity by angiotensin I” value in data set [4] (Example 4 tape, 9 mg as compound (I)/rat, five hours after administration) is listed as 80%.
